Laboratory results as given in ChEMBL document CHEMBL4665865, “New series of isoxazole derivatives targeting EGFR-TK: Synthesis, molecular modeling and antitumor evaluation” (Bioorg Med Chem, 2020).

Key:
[1] = test system: HCT-116; assay: Antitumor activity against human HCT-116 cells assessed as inhibition of cell viability by MTT assay; format: functional, cell-based
[2] = Lipophilicity, logP of the compound; format: physicochemical; conditions: octanol/water
[3] = test system: HepG2; assay: Antitumor activity against human HepG2 cells assessed as inhibition of cell viability by MTT assay; format: functional, cell-based
[4] = test system: MCF7; assay: Antitumor activity against human MCF7 cells assessed as inhibition of cell viability by MTT assay; format: functional, cell-based
[5] = molecular target: Epidermal growth factor receptor (Homo sapiens, UniProt P00533); assay: Inhibition of EGFR-TK (unknown origin) relative to control
[6] = molecular target: DNA topoisomerase 2-beta (Homo sapiens, UniProt Q02880); assay: Inhibition of Topoisomerase II beta (unknown origin) relative to control
DNA topoisomerase 2-beta, sequence (Q02880 whole entry): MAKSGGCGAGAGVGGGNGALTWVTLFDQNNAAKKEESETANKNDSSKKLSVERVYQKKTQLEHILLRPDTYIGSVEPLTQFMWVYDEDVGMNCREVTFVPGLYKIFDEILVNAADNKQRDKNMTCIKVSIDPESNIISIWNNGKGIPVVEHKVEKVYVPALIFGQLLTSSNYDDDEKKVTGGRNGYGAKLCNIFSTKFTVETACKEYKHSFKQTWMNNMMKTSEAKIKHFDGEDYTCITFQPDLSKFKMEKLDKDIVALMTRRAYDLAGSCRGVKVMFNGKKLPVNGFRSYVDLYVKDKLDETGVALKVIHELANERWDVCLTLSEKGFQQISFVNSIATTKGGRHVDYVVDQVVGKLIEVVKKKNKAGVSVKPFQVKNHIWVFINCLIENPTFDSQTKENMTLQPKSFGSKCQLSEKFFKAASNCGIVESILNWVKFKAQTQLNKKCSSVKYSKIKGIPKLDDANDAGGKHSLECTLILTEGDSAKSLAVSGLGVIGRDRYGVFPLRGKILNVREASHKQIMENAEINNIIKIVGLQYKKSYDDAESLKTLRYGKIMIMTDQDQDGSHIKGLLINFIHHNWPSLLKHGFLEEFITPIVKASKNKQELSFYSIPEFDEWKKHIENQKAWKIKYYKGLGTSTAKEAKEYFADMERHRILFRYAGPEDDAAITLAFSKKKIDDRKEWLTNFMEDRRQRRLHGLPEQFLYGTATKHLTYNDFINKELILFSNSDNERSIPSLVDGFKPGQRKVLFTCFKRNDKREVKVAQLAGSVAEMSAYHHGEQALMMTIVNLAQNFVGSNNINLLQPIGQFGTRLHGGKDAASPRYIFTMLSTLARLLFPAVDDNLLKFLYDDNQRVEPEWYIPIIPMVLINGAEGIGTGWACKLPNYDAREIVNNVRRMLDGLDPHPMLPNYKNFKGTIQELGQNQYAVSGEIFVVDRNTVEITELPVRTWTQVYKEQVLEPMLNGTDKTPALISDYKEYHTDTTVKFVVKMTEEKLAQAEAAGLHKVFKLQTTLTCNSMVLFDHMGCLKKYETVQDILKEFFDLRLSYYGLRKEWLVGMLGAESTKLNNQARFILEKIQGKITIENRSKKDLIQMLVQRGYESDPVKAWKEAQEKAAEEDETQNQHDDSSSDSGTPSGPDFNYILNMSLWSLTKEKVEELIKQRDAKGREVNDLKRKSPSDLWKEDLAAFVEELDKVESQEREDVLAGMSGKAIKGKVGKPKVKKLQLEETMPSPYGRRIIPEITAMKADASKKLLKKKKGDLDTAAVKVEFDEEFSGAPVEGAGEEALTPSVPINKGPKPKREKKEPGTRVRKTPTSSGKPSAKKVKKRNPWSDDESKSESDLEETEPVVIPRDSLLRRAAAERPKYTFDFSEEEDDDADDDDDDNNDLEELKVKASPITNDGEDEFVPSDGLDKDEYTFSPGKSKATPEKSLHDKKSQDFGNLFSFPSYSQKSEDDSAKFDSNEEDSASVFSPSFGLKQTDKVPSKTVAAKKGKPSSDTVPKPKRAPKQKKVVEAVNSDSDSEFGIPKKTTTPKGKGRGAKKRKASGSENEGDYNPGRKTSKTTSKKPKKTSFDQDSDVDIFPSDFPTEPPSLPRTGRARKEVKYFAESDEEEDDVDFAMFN

Epidermal growth factor receptor, sequence (P00533 whole entry): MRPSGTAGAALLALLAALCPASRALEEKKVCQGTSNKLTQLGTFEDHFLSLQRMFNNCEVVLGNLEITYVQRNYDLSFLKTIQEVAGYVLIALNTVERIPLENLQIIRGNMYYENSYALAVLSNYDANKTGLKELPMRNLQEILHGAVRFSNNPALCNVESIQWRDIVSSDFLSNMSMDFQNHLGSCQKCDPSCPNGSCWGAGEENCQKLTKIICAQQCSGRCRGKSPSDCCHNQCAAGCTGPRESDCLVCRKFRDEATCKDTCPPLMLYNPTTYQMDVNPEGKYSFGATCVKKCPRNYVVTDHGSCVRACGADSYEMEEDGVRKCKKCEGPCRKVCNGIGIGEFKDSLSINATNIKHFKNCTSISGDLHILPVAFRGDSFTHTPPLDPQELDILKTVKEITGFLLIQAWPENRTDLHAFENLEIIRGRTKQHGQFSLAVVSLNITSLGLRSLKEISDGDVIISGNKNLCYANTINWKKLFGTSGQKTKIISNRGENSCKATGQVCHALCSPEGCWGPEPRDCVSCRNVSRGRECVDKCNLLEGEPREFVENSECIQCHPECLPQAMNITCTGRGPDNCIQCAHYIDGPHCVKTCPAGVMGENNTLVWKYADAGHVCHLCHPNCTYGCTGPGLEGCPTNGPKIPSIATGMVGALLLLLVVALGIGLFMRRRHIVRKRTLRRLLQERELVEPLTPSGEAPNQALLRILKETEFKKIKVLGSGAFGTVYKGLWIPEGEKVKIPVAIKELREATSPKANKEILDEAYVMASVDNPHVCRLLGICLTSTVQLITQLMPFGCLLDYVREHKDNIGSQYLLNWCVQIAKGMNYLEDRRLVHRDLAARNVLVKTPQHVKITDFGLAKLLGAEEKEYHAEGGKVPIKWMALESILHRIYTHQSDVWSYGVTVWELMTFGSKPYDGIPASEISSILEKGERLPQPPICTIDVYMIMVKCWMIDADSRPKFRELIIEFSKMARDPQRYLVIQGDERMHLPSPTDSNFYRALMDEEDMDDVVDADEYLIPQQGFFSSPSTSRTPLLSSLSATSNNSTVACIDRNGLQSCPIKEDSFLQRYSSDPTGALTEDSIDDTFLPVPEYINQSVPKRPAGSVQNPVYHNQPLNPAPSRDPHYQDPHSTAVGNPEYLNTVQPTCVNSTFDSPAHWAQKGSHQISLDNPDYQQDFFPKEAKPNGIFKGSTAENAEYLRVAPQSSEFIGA

For `Cc1ccc(/C=C2/SC(Nc3cc(C(C)(C)C)on3)=NC2=O)cc1`, the IC50 [1] was 51.3 µM, the logP [2] was 5.15 and the IC50 [3] was 55.4 µM. For the same compound, the IC50 [4] was 39.6 µM.
With `CCN1CCN(CC(=O)Nc2cc(C)on2)CC1` the IC50 [1] was 17.6 µM, the logP [2] was 0.61 and the IC50 [5] was 0.081 µM. For the same compound, the IC50 [3] was 19.5 µM and the IC50 [4] was 12.6 µM.
With `CC(C)(C)c1cc(NC(=O)CCl)no1` the IC50 [1] was 9.96 µM, the logP [2] was 2.27 and the IC50 [5] was 0.124 µM. For the same compound, the IC50 [3] was 9.74 µM and the IC50 [4] was 7.15 µM.
Compound `Cc1cc(NC(=O)CCN2CCOCC2)no1` has an IC50 [1] of 89.6 µM, an IC50 [3] of 71.5 µM and an IC50 [4] of 51.9 µM.
Work on `CC(C)(C)c1cc(NC(=O)CN2CCN(Cc3ccccc3)CC2)no1` yielded an IC50 [1] of 78.4 µM, a logP [2] of 3.36 and an IC50 [3] of 57.1 µM. It also gave an IC50 [4] of 47.9 µM.
For `Cc1cc(NC(=O)CN2CCN(C)CC2)no1`, the IC50 [1] was 88.2 µM, the logP [2] was 0.23 and the IC50 [3] was 63.5 µM. The IC50 [4] was 65.1 µM.
Work on `CC(C)(C)c1cc(NC(=O)CCN2CCN(Cc3ccccc3)CC2)no1` yielded an IC50 [1] of 85.2 µM, a logP [2] of 3.26 and an IC50 [3] of 83 µM. The IC50 [4] was 55.4 µM.
In the case of `Cc1ccc(/C=C2/SC(Nc3cc(C)on3)=NC2=O)cc1`, the IC50 [1] is reported as > 100 µM, the logP [2] is reported as 3.43 and the IC50 [3] is reported as > 100 µM. For the same compound, the IC50 [4] was > 100 µM.
Compound `Cc1cc(NC(=O)CCN2CCN(c3ccccc3)CC2)no1` has an IC50 [1] of 46.1 µM, a logP [2] of 1.84 and an IC50 [3] of 51.8 µM. For the same compound, the IC50 [4] was 29.1 µM.
With `Cc1cc(NC(=O)CN2CCN(c3ccccc3)CC2)no1` the IC50 [1] was 26.2 µM, the logP [2] was 1.93 and the IC50 [5] was 0.064 µM. The IC50 [3] was 35 µM and the IC50 [4] was 16.7 µM.
Compound `CC(C)(C)c1cc(NC2=NC(=O)/C(=C\c3ccc(Cl)c(Cl)c3)S2)no1` has an IC50 [1] of 62.8 µM, an IC50 [3] of 43.8 µM and an IC50 [4] of 32.5 µM.
For `CC(C)(C)c1cc(NC(=O)CCN2CCN(c3ccccc3)CC2)no1`, the IC50 [1] was 33.6 µM, the logP [2] was 3.56 and the IC50 [3] was 37.1 µM. It also gave an IC50 [4] of 23 µM.
In the case of `Cc1cc(NC2=NC(=O)/C(=C\c3c(F)cccc3Cl)S2)no1`, the IC50 [1] is reported as 31.8 µM, the IC50 [3] is reported as 31.1 µM and the IC50 [4] is reported as 21.4 µM.
For `Cc1cc(NC(=O)CN2CCN(Cc3ccccc3)CC2)no1`, the IC50 [1] was 73.2 µM, the logP [2] was 1.63 and the IC50 [3] was 50.3 µM. The IC50 [4] was 44.8 µM.
In the case of `Cc1cc(NC(=O)CN2CCOCC2)no1`, the IC50 [1] is reported as > 100 µM, the logP [2] is reported as 0.19 and the IC50 [3] is reported as > 100 µM. For the same compound, the IC50 [4] was 81.8 µM.
Compound `CC(C)(C)c1cc(NC2=NC(=O)/C(=C\c3ccc(-c4ccccc4)cc3)S2)no1` has an IC50 [1] of 86.4 µM, a logP [2] of 6.5 and an IC50 [3] of 84.7 µM. The IC50 [4] was 59.3 µM.
For `Cc1cc(N2C(=O)c3c(Cl)c(Cl)c(Cl)c(Cl)c3C2=O)no1`, the IC50 [1] was > 100 µM, the IC50 [3] was > 100 µM and the IC50 [4] was > 100 µM.
For `Cc1cc(NC(=O)CCN2CCN(C)CC2)no1`, the IC50 [1] was 75.8 µM, the logP [2] was 0.14 and the IC50 [3] was 56.7 µM. The IC50 [4] was 44.2 µM.
In the case of `COc1cccc2c1C(=O)c1c(O)c3c(c(O)c1C2=O)C[C@@](O)(C(=O)CO)C[C@@H]3O[C@H]1C[C@H](N)[C@H](O)[C@H](C)O1` [DOXORUBICIN], the IC50 [6] is reported as 0.727 µM.
Work on `Cc1cc(NC2=NC(=O)/C(=C\c3ccc(Br)cc3)S2)no1` yielded an IC50 [1] of 95 µM, a logP [2] of 3.79 and an IC50 [3] of 87.8 µM. For the same compound, the IC50 [4] was 68.7 µM.
In the case of `Cc1cc(NC2=NC(=O)/C(=C\c3ccc(-c4ccccc4)cc3)S2)no1`, the IC50 [1] is reported as > 100 µM, the logP [2] is reported as 4.78 and the IC50 [3] is reported as > 100 µM. For the same compound, the IC50 [4] was > 100 µM.
For `Cc1cc(NC2=NC(=O)/C(=C\c3ccco3)S2)no1`, the IC50 [1] was 58.3 µM, the IC50 [3] was 41.6 µM and the IC50 [4] was 30.3 µM.
For `Cc1cc(N2C(=O)c3c(Br)c(Br)c(Br)c(Br)c3C2=O)no1`, the IC50 [1] was > 100 µM, the IC50 [3] was > 100 µM and the IC50 [4] was > 100 µM.
Work on `CN1CCN(CC(=O)Nc2cc(C(C)(C)C)on2)CC1` yielded an IC50 [1] of 80.1 µM, a logP [2] of 1.96 and an IC50 [3] of 65.3 µM. The IC50 [4] was 56.2 µM.
With `CC(C)(C)c1cc(NC2=NC(=O)/C(=C\c3c(F)cccc3Cl)S2)no1` the IC50 [1] was > 100 µM, the IC50 [3] was 91.6 µM and the IC50 [4] was 70.6 µM.
For `CC(C)(C)c1cc(NC(=O)CCCl)no1`, the IC50 [1] was 92.6 µM, the IC50 [3] was 74.8 µM and the IC50 [4] was 59.8 µM.
`Cc1cc(NC(=O)CCl)no1` gave an IC50 [1] of 13.1 µM, a logP [2] of 0.55 and an IC50 [5] of 0.106 µM. It also gave an IC50 [3] of 11.1 µM and an IC50 [4] of 10.4 µM.
Work on `CC(C)(C)c1cc(NC2=NC(=O)/C(=C\c3ccc4ccccc4c3)S2)no1` yielded an IC50 [1] of 94.2 µM, a logP [2] of 5.89 and an IC50 [3] of 79.2 µM. The IC50 [4] was 67.6 µM.
With `CN1CCN(CCC(=O)Nc2cc(C(C)(C)C)on2)CC1` the IC50 [1] was > 100 µM, the logP [2] was 1.86 and the IC50 [3] was > 100 µM. For the same compound, the IC50 [4] was 74.6 µM.
Work on `CC(C)(C)c1cc(NC(=O)CN2CCN(c3ccccc3)CC2)no1` yielded an IC50 [1] of 24.7 µM, a logP [2] of 3.66 and an IC50 [5] of 0.066 µM. The IC50 [3] was 28.4 µM and the IC50 [4] was 17.2 µM.
For `Cc1cc(NC2=NC(=O)/C(=C\c3ccc(Cl)c(Cl)c3)S2)no1`, the IC50 [1] was 40.6 µM, the IC50 [3] was 45.2 µM and the IC50 [4] was 37.7 µM.
In the case of `CC(C)(C)c1cc(NC2=NC(=O)/C(=C\c3ccco3)S2)no1`, the IC50 [1] is reported as 66.7 µM, the IC50 [3] is reported as 68.2 µM and the IC50 [4] is reported as 42.9 µM.
For `Cc1cc(NC(=O)CCCl)no1`, the IC50 [1] was 75.3 µM, the IC50 [3] was 62 µM and the IC50 [4] was 48.9 µM.
Work on `CC(C)(C)c1cc(NC2=NC(=O)CS2)no1` yielded an IC50 [1] of 11.5 µM, a logP [2] of 1.97 and an IC50 [5] of 0.15 µM. It also gave an IC50 [3] of 18.3 µM and an IC50 [4] of 9.42 µM.
Compound `CCN1CCN(CC(=O)Nc2cc(C(C)(C)C)on2)CC1` has an IC50 [1] of 38.4 µM, a logP [2] of 2.33 and an IC50 [3] of 39.1 µM. For the same compound, the IC50 [4] was 27.1 µM.
In the case of `Cc1cc(NC2=NC(=O)/C(=C\c3ccc4ccccc4c3)S2)no1`, the IC50 [1] is reported as > 100 µM, the logP [2] is reported as 4.16 and the IC50 [3] is reported as > 100 µM. The IC50 [4] was > 100 µM.
For `CCN1CCN(CCC(=O)Nc2cc(C)on2)CC1`, the IC50 [1] was 69 µM, the logP [2] was 0.51 and the IC50 [3] was 52.2 µM. It also gave an IC50 [4] of 45.7 µM.
In the case of `CCN1CCN(CCC(=O)Nc2cc(C(C)(C)C)on2)CC1`, the IC50 [1] is reported as 91.2 µM, the logP [2] is reported as 2.24 and the IC50 [3] is reported as 76.4 µM. For the same compound, the IC50 [4] was 61.3 µM.
In the case of `CC(C)(C)c1cc(N2C(=O)c3c(Cl)c(Cl)c(Cl)c(Cl)c3C2=O)no1`, the IC50 [1] is reported as > 100 µM, the IC50 [3] is reported as > 100 µM and the IC50 [4] is reported as 88.3 µM.
In the case of `CC(C)(C)c1cc(N2C(=O)c3c(Br)c(Br)c(Br)c(Br)c3C2=O)no1`, the IC50 [1] is reported as > 100 µM, the IC50 [3] is reported as 90.4 µM and the IC50 [4] is reported as 64.9 µM.
For `CC(C)(C)c1cc(NC(=O)CCN2CCOCC2)no1`, the IC50 [1] was > 100 µM, the IC50 [3] was 93.5 µM and the IC50 [4] was 78.2 µM.
In the case of `CC(C)(C)c1cc(NC2=NC(=O)/C(=C\c3ccc(Br)s3)S2)no1`, the IC50 [1] is reported as > 100 µM, the IC50 [3] is reported as > 100 µM and the IC50 [4] is reported as > 100 µM.
Compound `CC(C)(C)c1cc(NC(=O)CN2CCOCC2)no1` has an IC50 [1] of 28 µM, a logP [2] of 1.91 and an IC50 [5] of 0.144 µM. The IC50 [3] was 25 µM and the IC50 [4] was 19.6 µM.
For `Cc1cc(NC(=O)CCN2CCN(Cc3ccccc3)CC2)no1`, the IC50 [1] was > 100 µM, the logP [2] was 1.54 and the IC50 [3] was 89.4 µM. It also gave an IC50 [4] of 92.2 µM.
Compound `CC(C)(C)c1cc(NC2=NC(=O)/C(=C\c3ccc(Br)cc3)S2)no1` has an IC50 [1] of 64.4 µM, a logP [2] of 5.51 and an IC50 [3] of 48.2 µM. It also gave an IC50 [4] of 36.1 µM.
In the case of `Cc1cc(NC2=NC(=O)/C(=C\c3ccc(Br)s3)S2)no1`, the IC50 [1] is reported as 36.6 µM, the IC50 [3] is reported as 32.8 µM and the IC50 [4] is reported as 24.2 µM.
Compound `Cc1cc(NC2=NC(=O)CS2)no1` has an IC50 [1] of 20.8 µM, a logP [2] of 0.24 and an IC50 [5] of 0.081 µM. For the same compound, the IC50 [3] was 23.8 µM and the IC50 [4] was 14.8 µM.
